We go through 27 compounds from US8450332B2, “LIMK2 inhibitors, compositions comprising them, and methods of their use” (Lexicon Pharmaceuticals, Inc., priority 2008, dated 2013).

In this experiment the target is T1, LIMK2 (Homo sapiens, UniProt P53671).
T1 construct: His tag (histidine-tagged; pFastBacHT vector); made in house; host or cells: Sf9 insect cells (BAC-to-BAC baculovirus system)
T1 sequence (P53671 whole entry): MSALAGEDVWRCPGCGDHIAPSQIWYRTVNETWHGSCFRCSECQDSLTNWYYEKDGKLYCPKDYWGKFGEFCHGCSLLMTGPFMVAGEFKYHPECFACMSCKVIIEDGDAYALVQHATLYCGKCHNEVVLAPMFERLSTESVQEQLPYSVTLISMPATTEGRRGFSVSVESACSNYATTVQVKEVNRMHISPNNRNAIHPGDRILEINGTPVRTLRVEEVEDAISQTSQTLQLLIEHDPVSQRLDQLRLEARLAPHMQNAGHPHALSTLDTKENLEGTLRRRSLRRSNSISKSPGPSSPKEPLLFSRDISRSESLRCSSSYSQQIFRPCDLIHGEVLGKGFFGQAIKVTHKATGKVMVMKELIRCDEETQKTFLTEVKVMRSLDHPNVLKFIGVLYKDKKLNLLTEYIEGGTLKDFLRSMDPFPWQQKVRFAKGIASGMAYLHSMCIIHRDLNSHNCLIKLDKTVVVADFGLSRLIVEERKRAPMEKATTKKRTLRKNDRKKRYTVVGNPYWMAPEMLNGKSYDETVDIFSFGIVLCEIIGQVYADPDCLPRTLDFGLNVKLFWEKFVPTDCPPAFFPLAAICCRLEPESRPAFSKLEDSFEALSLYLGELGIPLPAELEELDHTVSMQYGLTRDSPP
Briefly: In vitro LIMK2 inhibition assay (33P incorporation into myelin basic protein flash plates). Type of experiment: biochemical. The protocol:
Using the procedures described herein and methods known in the art, the additional compounds listed below in Table 1 were prepared. The LIMK2 IC50 data that is provided below for some of the compounds was determined using the assay described in Example 32.
An in vitro assay used to identify LIMK2 inhibitors was developed. The analytical readout was the incorporation of ^33P from ATP substrate into immobilized myelin basic protein coated flash plates (Perkin Elmer Biosciences), which were counted on a scintillation counter equipped with a plate reader (TopCount, Packard Bioscience, Meriden, Conn.). Using 384 well flat MBP flashplates, total assay volume was 50 μl. The HTS program utilized a Biomek FX for dilution.
For each assay, the ingredients and conditions were as follows: 200 ng of enzyme was incubated in assay buffer (1× assay buffer contains 30 mM HEPES (pH 8.0), 5 mM DTT, and 10 mM MgCl2), 10 μM ATP, 0.2 μCi [gamma-^33P]-ATP and 10 μM of potential inhibitory compound. The reaction was incubated at room temperature for 60 minutes, washed 3 times with 75 μl of stop/wash buffer (1× stop/was buffer contains 50 mM EDTA and 20 mM Tris (pH 7.4)), and then the plates were read on the scintillation counter. Different concentrations of staurosporine (400 nM, 200 nM, 100 nM and 50 nM; purchased from BIOMOL (Plymouth Meeting, Pa.)) were used as controls on each plate.
`Cc1c[nH]c2ncnc(N3CCC(CCN4CCOCC4)(C(=O)Nc4cccc(OC(=O)N(C)C)c4)CC3)c12` [3-(1-(5-methyl-7H-pyrrolo[2,3-d]pyrimidin-4-yl)-4-(2-morpholinoethyl)piperidine-4-carboxamido)phenyl dimethylcarbamate] yielded an IC50 below 0.25 µM. In turn, `Cc1c[nH]c2ncnc(N3CCC(C(=O)Nc4cccc(OC(=O)N(C)C)c4)(c4nn[nH]n4)CC3)c12` [3-(1-(5-methyl-7H-pyrrolo[2,3-d]pyrimidin-4-yl)-4-(2H-tetrazol-5-yl)piperidine-4-carboxamido)phenyl dimethylcarbamate] came in with an IC50 below 0.25 µM. For `Cc1c[nH]c2ncnc(N3CCC(CNC(=O)N4CCOCC4)(C(=O)Nc4cccc(OC(=O)N(C)C)c4)CC3)c12` [3-(1-(5-methyl-7H-pyrrolo[2,3-d]pyrimidin-4-yl)-4-((morpholine-4-carboxamido)methyl)piperidine-4-carboxamido)phenyl dimethylcarbamate] the value was below 0.25 µM; for `Cc1c[nH]c2ncnc(N3CCC(CNS(N)(=O)=O)(C(=O)Nc4cccc(OC(=O)N(C)C)c4)CC3)c12` [3-(1-(5-methyl-7H-pyrrolo[2,3-d]pyrimidin-4-yl)-4-((sulfamoylamino)methyl)piperidine-4-carboxamido)phenyl dimethylcarbamate], below 0.25 µM; for `Cc1c[nH]c2ncnc(N3CCC(CNS(C)(=O)=O)(C(=O)Nc4cccc(OC(=O)N(C)C)c4)CC3)c12` [3-(1-(5-methyl-7H-pyrrolo[2,3-d]pyrimidin-4-yl)-4-(methylsulfonamidomethyl)piperidine-4-carboxamido)phenyl dimethylcarbamate], below 0.25 µM. In the case of `Cc1c[nH]c2ncnc(N3CCC(CN4CCOCC4)(C(=O)Nc4cccc(OC(=O)N(C)C)c4)CC3)c12` [3-(1-(5-methyl-7H-pyrrolo[2,3-d]pyrimidin-4-yl)-4-(morpholinomethyl)piperidine-4-carboxamido)phenyl dimethylcarbamate] it was below 0.25 µM; in that of `Cc1c[nH]c2ncnc(N3CCC(CNC(N)=O)(C(=O)Nc4cccc(OC(=O)N(C)C)c4)CC3)c12` [3-(1-(5-methyl-7H-pyrrolo[2,3-d]pyrimidin-4-yl)-4-(ureidomethyl)piperidine-4-carboxamido)phenyl dimethylcarbamate], below 0.25 µM; in that of `CCCC1(C(=O)Nc2cccc(OC(=O)N(C)C)c2)CCN(c2ncnc3[nH]cc(C)c23)CC1` [3-(1-(5-methyl-7H-pyrrolo[2,3-d]pyrimidin-4-yl)-4-propylpiperidine-4-carboxamido)phenyl dimethylcarbamate], below 0.25 µM. For `Cc1c[nH]c2ncnc(N3CCC(NCCOCc4ccccc4)(C(=O)Nc4cccc(OC(=O)N(C)C)c4)CC3)c12` [3-(4-(2-(benzyloxy)ethylamino)-1-(5-methyl-7H-pyrrolo[2,3-d]pyrimidin-4-yl)piperidine-4-carboxamido)phenyl dimethylcarbamate] the value was below 0.25 µM; for `Cc1c[nH]c2ncnc(N3CCC(NCCNC(=O)OC(C)(C)C)(C(=O)Nc4cccc(OC(=O)N(C)C)c4)CC3)c12` [3-(4-(2-(tert-butoxycarbonylamino)ethylamino)-1-(5-methyl-7H-pyrrolo[2,3-d]pyrimidin-4-yl)piperidine-4-carboxamido)phenyl dimethylcarbamate], below 0.25 µM; for `Cc1c[nH]c2ncnc(N3CCC(NCCN)(C(=O)Nc4cccc(OC(=O)N(C)C)c4)CC3)c12` [3-(4-(2-aminoethylamino)-1-(5-methyl-7H-pyrrolo[2,3-d]pyrimidin-4-yl)piperidine-4-carboxamido)phenyl dimethylcarbamate], below 0.25 µM. Regarding `Cc1c[nH]c2ncnc(N3CCC(NCCO)(C(=O)Nc4cccc(OC(=O)N(C)C)c4)CC3)c12` [3-(4-(2-hydroxyethylamino)-1-(5-methyl-7H-pyrrolo[2,3-d]pyrimidin-4-yl)piperidine-4-carboxamido)phenyl dimethylcarbamate], the IC50 was below 0.25 µM. With `Cc1c[nH]c2ncnc(N3CCC(CNC(=O)C4(N)CC4)(C(=O)Nc4cccc(OC(=O)N(C)C)c4)CC3)c12` [3-(4-((1-aminocyclopropanecarboxamido)methyl)-1-(5-methyl-7H-pyrrolo[2,3-d]pyrimidin-4-yl)piperidine-4-carboxamido)phenyl dimethylcarbamate], the IC50 is below 0.25 µM. Turning to `Cc1c[nH]c2ncnc(N3CCC(CNC(=O)c4cnn(C)c4)(C(=O)Nc4cccc(OC(=O)N(C)C)c4)CC3)c12` [3-(4-((1-methyl-1H-pyrazole-4-carboxamido)methyl)-1-(5-methyl-7H-pyrrolo[2,3-d]pyrimidin-4-yl)piperidine-4-carboxamido)phenyl dimethylcarbamate], the IC50 is below 0.25 µM. In the case of `Cc1c[nH]c2ncnc(N3CCC(CNC(=O)C4(NC(=O)OC(C)(C)C)CC4)(C(=O)Nc4cccc(OC(=O)N(C)C)c4)CC3)c12` [3-(4-((1-tert-butoxycarbonylaminocyclopropanecarboxamido)methyl)-1-(5-methyl-7H-pyrrolo[2,3-d]pyrimidin-4-yl)piperidine-4-carboxamido)phenyl dimethylcarbamate] it was below 0.25 µM; in that of `Cc1c[nH]c2ncnc(N3CCC(Cc4ncc[nH]4)(C(=O)Nc4cccc(OC(=O)N(C)C)c4)CC3)c12` [3-(4-((1H-imidazol-2-yl)methyl)-1-(5-methyl-7H-pyrrolo[2,3-d]pyrimidin-4-yl)piperidine-4-carboxamido)phenyl dimethylcarbamate], below 0.25 µM.

In turn, `Cc1c[nH]c2ncnc(N3CCC(Cc4nnn[nH]4)(C(=O)Nc4cccc(OC(=O)N(C)C)c4)CC3)c12` [3-(4-((1H-tetrazol-5-yl)methyl)-1-(5-methyl-7H-pyrrolo[2,3-d]pyrimidin-4-yl)piperidine-4-carboxamido)phenyl dimethylcarbamate] displayed an IC50 below 0.25 µM. `Cc1c[nH]c2ncnc(N3CCC(CNC(=O)CC4NC(=O)NC4=O)(C(=O)Nc4cccc(OC(=O)N(C)C)c4)CC3)c12` (stereo not drawn) [3-(4-((2-(2,5-dioxoimidazolidin-4-yl)acetamido)methyl)-1-(5-methyl-7H-pyrrolo[2,3-d]pyrimidin-4-yl)piperidine-4-carboxamido)phenyl dimethylcarbamate] returned an IC50 below 0.25 µM.

The compound `COCCOCC(=O)NCC1(C(=O)Nc2cccc(OC(=O)N(C)C)c2)CCN(c2ncnc3[nH]cc(C)c23)CC1` [3-(4-((2-(2-methoxyethoxy)acetamido)methyl)-1-(5-methyl-7H-pyrrolo[2,3-d]pyrimidin-4-yl)piperidine-4-carboxamido)phenyl dimethylcarbamate] came in with an IC50 below 0.25 µM. For `Cc1c[nH]c2ncnc(N3CCC(CNC(=O)CN(C)C)(C(=O)Nc4cccc(OC(=O)N(C)C)c4)CC3)c12` [3-(4-((2-(dimethylamino)acetamido)methyl)-1-(5-methyl-7H-pyrrolo[2,3-d]pyrimidin-4-yl)piperidine-4-carboxamido)phenyl dimethylcarbamate] the value was below 0.25 µM; for `Cc1c[nH]c2ncnc(N3CCC(CNC(=O)CN)(C(=O)Nc4cccc(OC(=O)N(C)C)c4)CC3)c12` [3-(4-((2-aminoacetamido)methyl)-1-(5-methyl-7H-pyrrolo[2,3-d]pyrimidin-4-yl)piperidine-4-carboxamido)phenyl dimethylcarbamate], below 0.25 µM; for `COCC(=O)NCC1(C(=O)Nc2cccc(OC(=O)N(C)C)c2)CCN(c2ncnc3[nH]cc(C)c23)CC1` [3-(4-((2-methoxyacetamido)methyl)-1-(5-methyl-7H-pyrrolo[2,3-d]pyrimidin-4-yl)piperidine-4-carboxamido)phenyl dimethylcarbamate], below 0.25 µM. For `Cc1c[nH]c2ncnc(N3CCC(CNC(=O)C(C)(CO)CO)(C(=O)Nc4cccc(OC(=O)N(C)C)c4)CC3)c12` [3-(4-((3-hydroxy-2-(hydroxymethyl)-2-methylpropanamido)methyl)-1-(5-methyl-7H-pyrrolo[2,3-d]pyrimidin-4-yl)piperidine-4-carboxamido)phenyl dimethylcarbamate] the value was below 0.25 µM.

Turning to `COCCC(=O)NCC1(C(=O)Nc2cccc(OC(=O)N(C)C)c2)CCN(c2ncnc3[nH]cc(C)c23)CC1` [3-(4-((3-methoxypropanamido)methyl)-1-(5-methyl-7H-pyrrolo[2,3-d]pyrimidin-4-yl)piperidine-4-carboxamido)phenyl dimethylcarbamate], the IC50 is below 0.25 µM. Take `Cc1cc(C(=O)NCC2(C(=O)Nc3cccc(OC(=O)N(C)C)c3)CCN(c3ncnc4[nH]cc(C)c34)CC2)n[nH]1` [3-(4-((5-methyl-1H-pyrazole-3-carboxamido)methyl)-1-(5-methyl-7H-pyrrolo[2,3-d]pyrimidin-4-yl)piperidine-4-carboxamido)phenyl dimethylcarbamate]: the IC50 is below 0.25 µM.

`Cc1c[nH]c2ncnc(N3CCC(CNS(=O)(=O)N(C)C)(C(=O)Nc4cccc(OC(=O)N(C)C)c4)CC3)c12` [3-(4-((N,N-dimethylsulfamoylamino)methyl)-1-(5-methyl-7H-pyrrolo[2,3-d]pyrimidin-4-yl)piperidine-4-carboxamido)phenyl dimethylcarbamate] yielded an IC50 below 0.25 µM. For `Cc1c[nH]c2ncnc(N3CCC(Cc4nnnn4Cc4ccccc4)(C(=O)Nc4cccc(OC(=O)N(C)C)c4)CC3)c12` [3-(4-((l-benzyl-1H-tetrazol-5-yl)methyl)-1-(5-methyl-7H-pyrrolo[2,3-d]pyrimidin-4-yl)piperidine-4-carboxamido)phenyl dimethylcarbamate] the value was below 0.25 µM.

What is called IC50 is the concentration at which inhibition is half-maximal. A lower IC50 goes with higher potency.
